Measurements taken from article PMC4877593, “Design and Synthesis of Potent in Vitro and in Vivo Anticancer Agents Based on 1-(3′,4′,5′-Trimethoxyphenyl)-2-Aryl-1H-Imidazole” (Scientific Reports, 2016).
Where two headings read alike, the source gives them in different places.

What was measured:
[1] = test system: Jurkat; assay: In vitro antiproliferative activity (MTT), Jurkat; type: cell-based; settings: Homo sapiens, tumor cell proliferation, 72 h, mean ± SE
Method: (§1) Human T-cell leukemia (CCRF-CEM and Jurkat) and human B-cell leukemia (SEM) cells were grown in RPMI-1640 medium (Gibco, Milano, Italy). Breast adenocarcinoma (MCF7), human cervix carcinoma (HeLa), and human colon adenocarcinoma (HT-29) cells were grown in DMEM medium (Gibco, Milano, Italy), all supplemented with 115 units/mL penicillin G (Gibco, Milano, Italy), 115 μg/mL streptomycin (Invitrogen, Milano, Italy), and 10% fetal bovine serum (Invitrogen, Milano, Italy). Stock solutions (10 mM) of the different compounds were obtained by dissolving them in dimethyl sulfoxide (DMSO). Individual wells of a 96-well tissue culture microtiter plate were inoculated with 100 μL of complete medium containing 8 × 10^3 cells. The plates were incubated at 37 °C in a humidified 5% CO2 incubator for 18 h prior to the experiments. After medium removal, 100 μL of fresh medium containing the test compound at different concentrations was added to each well in triplicate and incubated at 37 °C for 72 h. The percentage of DMSO in the medium never exceeded 0.25%. This was also the maximum DMSO concentration in all cell-based assays described below. […] Different concentrations of the test compounds were added, and viability was determined 72 h later by the MTT test. For cytotoxicity evaluations in resting PBL cultures, non-adherent cells were resuspended (5 × 10^5 cells/mL) and treated for 72 h with the test compounds, as described above.

[2] = test system: MCF-7; assay: In vitro antiproliferative activity (MTT), MCF-7; type: cell-based; settings: Homo sapiens, MCF7, tumor cell proliferation, 72 h, mean ± SE
Method: as §1

[3] = test system: RS4;11; assay: In vitro antiproliferative activity (MTT), RS4;11; type: cell-based; settings: Homo sapiens, tumor cell proliferation, 72 h, mean ± SE
[4] = test system: bovine brain tubulin; assay: Inhibition of tubulin polymerization (turbidimetry); type: biochemical
Method: To evaluate the effect of the compounds on tubulin assembly in vitro[22], varying concentrations of compounds were preincubated with 10 μM bovine brain tubulin in glutamate buffer at 30 °C and then cooled to 0 °C. After addition of 0.4 mM GTP (final concentration), the mixtures were transferred to 0 °C cuvettes in a recording spectrophotometer equipped with an electronic temperature controller and warmed to 30 °C. Tubulin assembly was followed turbidimetrically at 350 nm. […] The ability of the test compounds to inhibit colchicine binding to tubulin was measured as described, except that the reaction mixtures contained 1 μM tubulin, 5 μM [^3H]colchicine and 1 or 5 μM test compound.

[5] = test system: HL-60; assay: In vitro antiproliferative activity (MTT), HL-60; type: cell-based; settings: Homo sapiens, tumor cell proliferation, 72 h, mean ± SE
[6] = test system: A549; assay: In vitro antiproliferative activity (MTT), A549; type: cell-based; settings: Homo sapiens, tumor cell proliferation, 72 h, mean ± SE
Method: as §1

[7] = test system: panel of seven human tumor cell lines; assay: Antiproliferative activity across the panel of seven human tumor cell lines; type: cell-based
Method: as §1

[8] = test system: HeLa; assay: In vitro antiproliferative activity (MTT), HeLa; type: cell-based; settings: Homo sapiens, tumor cell proliferation, 72 h, mean ± SE
Method: as §1

[9] = test system: HT-29; assay: In vitro antiproliferative activity (MTT), HT-29; type: cell-based; settings: Homo sapiens, tumor cell proliferation, 72 h, mean ± SE
Method: as §1

[10] = test system: HCT-15 (human colon adenocarcinoma); settings: cited from earlier work
[11] = test system: NCI-H460 (human lung large cell carcinoma); settings: cited from earlier work
[12] = test system: tubulin; settings: read-out: IC50 inhibitor of tubulin polymerization; cited from earlier work
[13] = average over the seven cell lines, read-out: average IC50 values
[14] = range over seven cancer cell lines, read-out: IC50 values in the seven cell lines (range)

SMILES | IC50 [1] | IC50 [2] | IC50 [3] | IC50 ([4]; repeated beside the calculated energies, read-out: inhibition of tubulin polymerization IC50 (Table 4)) | IC50 ([4]; tubulin at 10 μM, 20 min incubation, read-out: Tubulin assembly IC50 ± S.D.) | IC50 [5] | IC50 [6] | melting point | IC50 [7, 13] | IC50 [7, 14] | IC50 [8] | IC50 [9] | IC50 [10] | IC50 [11] | IC50 [12]
CCOc1ccc(-c2nccn2-c2cc(OC)c(OC)c(OC)c2)cc1 [Compound 4k, 2-(4′-Ethoxyphenyl)-1-(3′,4′,5′-trimethoxyphenyl)-1H-imidazole] | 1.2 ± 0.5 nM | 1.5 ± 0.2 nM | 34.7 nM | 630 nM | 630 nM | 4.8 ± 1.9 nM | 1.9 ± 1 nM | 132 to 134 °C | 7.1 nM | 1.8 to 34.7 nM | 3.7 ± 0.12 nM | 1.8 ± 0.8 nM |  |  | 
COc1cc(-n2ccnc2-c2ccc(N(C)C)cc2)cc(OC)c1OC [Compound 3a, 1-(3′,4′,5′-trimethoxyphenyl)-2-(4′-N,N-dimethylaminophenyl)-1H-imidazole] |  |  |  |  |  |  |  |  |  |  |  |  | 80 nM | 270 nM | 35000 nM
COc1ccc(-c2nccn2-c2cc(OC)c(OC)c(OC)c2)cc1 [Compound 3b, reference compound] | 133 ± 31 nM | 230 ± 55 nM | 5400 ± 950 nM |  |  | 4770 ± 120 nM | 1010 ± 104 nM |  | 1710 nM | 210 to 5400 nM | 210 ± 10.2 nM | 233 ± 52 nM | 1600 nM | 1100 nM | 
COc1cc(-n2ccnc2-c2ccc(SC)cc2)cc(OC)c1OC [Compound 4c, 1-(3′,4′,5′-Trimethoxyphenyl)-2-(4′-(methylthio)phenyl)-1H-imidazole] | 407 ± 24 nM | 1360 ± 350 nM | 800 ± 58 nM |  |  | 333 ± 41 nM | 5600 ± 352 nM | 158 to 160 °C |  |  | 337 ± 48 nM | 330 ± 36 nM |  |  | 
CCSc1ccc(-c2nccn2-c2cc(OC)c(OC)c(OC)c2)cc1 [Compound 4p, 2-(4′-(Ethylthio)phenyl)-1-(3′,4′,5′-trimethoxyphenyl)-1H-imidazole] | 127 ± 27 nM | 69 ± 7 nM | 85 ± 20 nM |  |  | 12 ± 2.5 nM | 228 ± 81 nM | 143 to 145 °C |  |  | 48 ± 2.5 nM | 174 ± 16 nM |  |  | 
COc1ccc(-c2nccn2-c2cc(OC)c(OC)c(OC)c2)cc1F [Compound 4d, 2-(3′-Fluoro-4′-methoxyphenyl)-1-(3′,4′,5′-trimethoxyphenyl)-1H-imidazole] | 90 ± 23 nM | 74 ± 17 nM | 217 ± 46 nM |  |  | 29 ± 9.5 nM | 121 ± 56 nM |  |  |  | 51 ± 6.5 nM | 112 ± 15 nM |  |  | 
COc1ccc(-c2nccn2-c2cc(OC)c(OC)c(OC)c2)cc1C [Compound 4f, 2-(4′-Methoxy-3′-methylphenyl)-1-(3′,4′,5′-trimethoxyphenyl)-1H-imidazole] | 136 ± 38 nM | 509 ± 25 nM | 475 ± 106 nM |  |  | 413 ± 27 nM | 4720 ± 509 nM | 128 to 130 °C |  |  | 330 ± 25 nM | 377 ± 33 nM |  |  | 
CCOc1cccc(-c2nccn2-c2cc(OC)c(OC)c(OC)c2)c1 [Compound 4l, 2-(3′-Ethoxyphenyl)-1-(3′,4′,5′-trimethoxyphenyl)-1H-imidazole] | > 10000 nM | > 10000 nM | > 10000 nM |  |  | > 10000 nM | > 10000 nM | 121 to 122 °C |  |  | > 10000 nM | > 10000 nM |  |  | 
COc1cc(-n2ccnc2-c2ccc(C)cc2)cc(OC)c1OC [Compound 4a, 1-(3′,4′,5′-Trimethoxyphenyl)-2-p-tolyl-1H-imidazole] | 760 ± 136 nM | 2800 ± 721 nM | > 10000 nM |  |  | 2100 ± 252 nM | 4730 ± 328 nM | 142 to 144 °C |  |  | 1260 ± 172 nM | 1920 ± 354 nM |  |  | 
COc1cc(-c2nccn2-c2cc(OC)c(OC)c(OC)c2)ccc1C [Compound 4g, 2-(4′-Methyl-3′-methoxyphenyl)-1-(3′,4′,5′-trimethoxyphenyl)-1H-imidazole] | 4930 ± 536 nM | > 10000 nM | 2570 ± 784 nM |  |  | > 10000 nM | > 10000 nM |  |  |  | 623 ± 98 nM | > 10000 nM |  |  | 
